Measurements taken from patent US20220282217A1, “COMPOSITIONS AND METHODS FOR PREPARING T CELL COMPOSITIONS AND USES THEREOF” (priority 2019, published 2022).
Read-outs that look alike come from different tables or passages of the source. Where a SMILES comes first, the peptide text is derived from it.

Target: HLA-A02.01 (Homo sapiens, UniProt P04439, D140Y/D185E/D98H/E176V/E277Q/G131W/G231S/I119V/I121R/I166T/I218V/L300P/L318F/N151K/N90K/P208A/P217A/Q86G/Q94H/R138H/R169H/T345S)
Assay: Class I MHC peptide binding affinity (displacement of radiolabeled reference peptide)
Details: allele A02.01, (nM))
Procedure: In brief, MHCI complexes were prepared and bound to radiolabeled reference peptides. Peptides were incubated at varying concentrations with these complexes for 2 days, and the amount of remaining radiolabeled peptide bound to […] was measured using size exclusion gel-filtration.

[1] = read-out: Observed Affinity (IC50

| Compound | IC50 [1] [nM] | IC50 (Observed Affinity (IC50) [nM] |
| --- | --- | --- |
| CC[C@H](C)[C@H](NC(=O)[C@@H]1CCCN1C(=O)[C@H](CCCNC(=N)N)NC(=O)[C@H](CCCNC(=N)N)NC(=O)[C@H](CC(N)=O)NC(=O)[C@H](CCSC)NC(=O)[C@H](CO)NC(=O)CNC(=O)[C@H](CCSC)NC(=O)[C@@H](N)CS)C(=O)O (H-CMGSMNRRPI-OH; N-terminus and C-terminus assumed) | 1990 |  |
| CC[C@H](C)[C@H](NC(=O)[C@@H]1CCCN1C(=O)[C@H](CC(C)C)NC(=O)[C@H](CC(C)C)NC(=O)[C@H](CCC(=O)O)NC(=O)[C@@H](N)Cc1ccccc1)C(=O)N1CCC[C@H]1C(=O)N1CCC[C@H]1C(=O)N[C@@H](CC(C)C)C(=O)O (H-FELLPIPPL-OH; N-terminus and C-terminus assumed) |  | 553 |
| CC[C@H](C)[C@H](NC(=O)[C@@H](NC(=O)[C@H](CO)NC(=O)[C@H](Cc1ccccc1)NC(=O)[C@H](Cc1ccccc1)NC(=O)[C@@H](N)Cc1ccccc1)C(C)C)C(=O)N[C@@H](Cc1ccccc1)C(=O)N[C@@H](CO)C(=O)N[C@H](C(=O)O)[C@@H](C)O (H-FFFSVIFST-OH; N-terminus and C-terminus assumed) | 4560 |  |
| CC[C@H](C)[C@H](NC(=O)[C@H](CCCCN)NC(=O)[C@H](Cc1ccc(O)cc1)NC(=O)[C@@H](NC(=O)[C@@H](NC(=O)[C@H](CC(=O)O)NC(=O)[C@H](CO)NC(=O)[C@H](CCSC)NC(=O)[C@@H](NC(=O)[C@@H](N)Cc1ccccc1)C(C)C)[C@@H](C)O)[C@@H](C)O)C(=O)O (H-FVMSDTTYKI-OH; N-terminus and C-terminus assumed) |  | 62.4 |
| CC[C@H](C)[C@H](NC(=O)[C@@H]1CCCN1C(=O)[C@H](CCCNC(=N)N)NC(=O)[C@H](CCC(N)=O)NC(=O)[C@H](CC(N)=O)NC(=O)[C@H](CCSC)NC(=O)CN)C(=O)N[C@@H](CC(C)C)C(=O)N[C@H](C(=O)O)[C@@H](C)O (H-GMNQRPILT-OH; N-terminus and C-terminus assumed) | 3030 |  |
| CC[C@H](C)[C@H](NC(=O)[C@H](CC(N)=O)NC(=O)[C@H](CCSC)NC(=O)[C@@H](N)Cc1c[nH]cn1)C(=O)N[C@@H](C)C(=O)N[C@@H](CC(N)=O)C(=O)N[C@@H](CC(C)C)C(=O)N[C@@H](CC(C)C)C(=O)NCC(=O)N[C@@H](C)C(=O)O (H-HMNIANLLGA-OH; N-terminus and C-terminus assumed) |  | 430 |
| CC[C@H](C)[C@H](N)C(=O)N[C@@H](C)C(=O)N[C@@H](CC(N)=O)C(=O)N[C@@H](CC(C)C)C(=O)N[C@@H](CC(C)C)C(=O)NCC(=O)N[C@@H](C)C(=O)N[C@@H](CS)C(=O)N[C@H](C(=O)N[C@H](C(=O)O)[C@@H](C)CC)[C@@H](C)O (H-IANLLGACTI-OH; N-terminus and C-terminus assumed) | 6420 |  |
| CC[C@H](C)[C@H](N)C(=O)N[C@H](C(=O)N[C@@H](CCC(=O)O)C(=O)N[C@@H](Cc1ccccc1)C(=O)N[C@@H](CCSC)C(=O)N[C@H](C(=O)N[C@@H](Cc1ccc(O)cc1)C(=O)NCC(=O)N[C@@H](CC(N)=O)C(=O)N[C@@H](CC(C)C)C(=O)O)[C@@H](C)O)[C@@H](C)CC (H-IIEFMTYGNL-OH; N-terminus and C-terminus assumed) |  | 9700 |
| CC[C@H](C)[C@H](N)C(=O)N[C@H](C(=O)N[C@H](C(=O)N[C@@H](CCC(=O)O)C(=O)N[C@@H](Cc1ccccc1)C(=O)N[C@@H](CCSC)C(=O)N[C@H](C(=O)N[C@@H](Cc1ccc(O)cc1)C(=O)NCC(=O)O)[C@@H](C)O)[C@@H](C)CC)[C@@H](C)CC (H-IIIEFMTYG-OH; N-terminus and C-terminus assumed) |  | 779 |
| CC[C@H](C)[C@H](N)C(=O)N[C@@H](CC(C)C)C(=O)N[C@@H](CCSC)C(=O)N[C@@H](CCC(=O)O)C(=O)N[C@@H](CC(C)C)C(=O)N[C@@H](CCSC)C(=O)N[C@@H](C)C(=O)NCC(=O)NCC(=O)N[C@@H](CC(=O)O)C(=O)O (H-ILMELMAGGD-OH; N-terminus and C-terminus assumed) | 3450 |  |
| CC[C@H](C)[C@H](N)C(=O)N[C@@H](CCSC)C(=O)N[C@@H](CO)C(=O)N[C@@H](CC(C)C)C(=O)N[C@@H](Cc1c[nH]c2ccccc12)C(=O)NCC(=O)N[C@@H](CC(C)C)C(=O)N[C@H](C(=O)N[C@@H](CO)C(=O)O)C(C)C (H-IMSLWGLVS-OH) | 7320 |  |
| CC[C@H](C)[C@H](N)C(=O)N[C@H](C(=O)N[C@@H](C)C(=O)N[C@@H](Cc1ccccc1)C(=O)N[C@@H](Cc1ccccc1)C(=O)N[C@@H](Cc1ccccc1)C(=O)N[C@@H](CS)C(=O)N[C@@H](Cc1c[nH]c2ccccc12)C(=O)N[C@H](C(=O)O)[C@@H](C)CC)[C@@H](C)O (H-ITAFFFCWI-OH; N-terminus and C-terminus assumed) | 7490 |  |

More lines, main results first:

| IC50 [1] [nM] | Compound | IC50 (Observed Affinity (IC50) [nM] |
| --- | --- | --- |
| 670 | CC(C)C[C@H](NC(=O)[C@H](CO)NC(=O)[C@H](CCCNC(=N)N)NC(=O)[C@H](Cc1c[nH]c2ccccc12)NC(=O)[C@H](CCC(N)=O)NC(=O)[C@@H](NC(=O)CNC(=O)[C@H](C)NC(=O)[C@H](CCC(N)=O)NC(=O)[C@H](C)N)C(C)C)C(=O)O (H-AQAGVQWRSL-OH; N-terminus and C-terminus assumed) |  |
| 0.4 | CC[C@H](C)[C@H](NC(=O)[C@H](CCC(N)=O)NC(=O)[C@H](Cc1c[nH]c2ccccc12)NC(=O)[C@H](Cc1ccccc1)NC(=O)CNC(=O)[C@H](CS)NC(=O)[C@H](CC(C)C)NC(=O)[C@H](C)NC(=O)[C@@H](N)Cc1ccccc1)C(=O)O (H-FALCGFWQI-OH; N-terminus and C-terminus assumed) |  |
| 61.2 | CC(C)[C@H](NC(=O)[C@H](CO)NC(=O)[C@H](CS)NC(=O)[C@H](CO)NC(=O)[C@H](CCCCN)NC(=O)[C@@H](NC(=O)[C@H](CCC(=O)O)NC(=O)[C@H](Cc1ccccc1)NC(=O)[C@H](Cc1ccccc1)NC(=O)[C@@H](N)Cc1ccccc1)[C@@H](C)O)C(=O)O (H-FFFETKSCSV-OH; N-terminus and C-terminus assumed) |  |
| 1580 | CC[C@H](C)[C@H](NC(=O)[C@@H](N)Cc1ccccc1)C(=O)N[C@@H](CC(C)C)C(=O)N[C@@H](CCSC)C(=O)N[C@@H](CCC(=O)O)C(=O)N[C@@H](CC(C)C)C(=O)N[C@@H](CCSC)C(=O)N[C@@H](C)C(=O)NCC(=O)NCC(=O)O (H-FILMELMAGG-OH; N-terminus and C-terminus assumed) |  |
| 663 | CC(C)C[C@H](NC(=O)[C@H](Cc1ccccc1)NC(=O)[C@H](CO)NC(=O)[C@H](CC(C)C)NC(=O)[C@H](CS)NC(=O)[C@H](CO)NC(=O)[C@H](Cc1ccccc1)NC(=O)[C@H](CC(C)C)NC(=O)[C@H](CCCCN)NC(=O)[C@@H](N)Cc1ccccc1)C(=O)O (H-FKLFSCLSFL-OH; N-terminus and C-terminus assumed) |  |
| 93.2 | CC(C)C[C@H](NC(=O)[C@H](C)NC(=O)[C@H](CC(C)C)NC(=O)[C@H](CC(C)C)NC(=O)[C@@H](N)Cc1ccccc1)C(=O)N[C@@H](Cc1c[nH]c2ccccc12)C(=O)N[C@@H](CCC(=O)O)C(=O)N[C@@H](CS)C(=O)N[C@@H](CO)C(=O)O (H-FLLALWECS-OH; N-terminus and C-terminus assumed) |  |
| 324 | CSCC[C@H](NC(=O)[C@H](CCCNC(=N)N)NC(=O)[C@H](CCCNC(=N)N)NC(=O)[C@H](Cc1ccc(O)cc1)NC(=O)[C@H](CC(=O)O)NC(=O)[C@H](Cc1c[nH]c2ccccc12)NC(=O)[C@H](CO)NC(=O)[C@H](CO)NC(=O)[C@H](CC(C)C)NC(=O)[C@@H](N)Cc1ccccc1)C(=O)O (H-FLSSWDYRRM-OH; N-terminus and C-terminus assumed) |  |
| 114 | CC[C@H](C)[C@H](NC(=O)[C@H](CO)NC(=O)[C@H](CC(C)C)NC(=O)CN)C(=O)N[C@@H](CO)C(=O)N[C@@H](CS)C(=O)N[C@H](C(=O)N[C@H](C(=O)N[C@@H](CC(C)C)C(=O)O)[C@@H](C)O)[C@@H](C)O (H-GLSISCTTL-OH; N-terminus and C-terminus assumed) |  |
| 1130 | CC[C@H](C)[C@H](NC(=O)[C@@H]1CCCN1C(=O)[C@H](CCCNC(=N)N)NC(=O)[C@H](Cc1c[nH]c2ccccc12)NC(=O)[C@H](CC(N)=O)NC(=O)[C@H](CCSC)NC(=O)CN)C(=O)N[C@@H](CC(C)C)C(=O)N[C@H](C(=O)O)[C@@H](C)O (H-GMNWRPILT-OH; N-terminus and C-terminus assumed) |  |
| 1090 | CC[C@H](C)[C@H](N)C(=O)N[C@H](C(=O)N[C@@H](CCC(=O)O)C(=O)N[C@@H](Cc1ccc(O)cc1)C(=O)N[C@@H](CS)C(=O)N[C@@H](Cc1ccccc1)C(=O)N[C@@H](Cc1ccc(O)cc1)C(=O)NCC(=O)N[C@@H](CC(=O)O)C(=O)N[C@@H](CC(C)C)C(=O)O)[C@@H](C)CC (H-IIEYCFYGDL-OH; N-terminus and C-terminus assumed) |  |
| 19.5 | CC[C@H](C)[C@H](N)C(=O)N[C@@H](CC(C)C)C(=O)N[C@H](C(=O)N[C@@H](CCCNC(=N)N)C(=O)N[C@@H](CCCCN)C(=O)N[C@@H](C)C(=O)N[C@@H](CCSC)C(=O)N[C@H](C(=O)N[C@H](C(=O)O)C(C)C)[C@@H](C)O)[C@@H](C)CC (H-ILIRKAMTV-OH; N-terminus and C-terminus assumed) |  |
| 6.7 | CC[C@H](C)[C@H](N)C(=O)N[C@@H](CC(C)C)C(=O)N[C@@H](CC(C)C)C(=O)N1CCC[C@H]1C(=O)N[C@@H](CCC(=O)O)C(=O)N[C@@H](CC(=O)O)C(=O)N[C@H](C(=O)N1CCC[C@H]1C(=O)N1CCC[C@H]1C(=O)N[C@@H](CC(C)C)C(=O)O)[C@@H](C)O (H-ILLPEDTPPL-OH; N-terminus and C-terminus assumed) |  |
| 78.7 | CC[C@H](C)[C@H](N)C(=O)N[C@H](C(=O)N[C@@H](C)C(=O)N[C@@H](Cc1ccccc1)C(=O)N[C@@H](Cc1ccccc1)C(=O)N[C@@H](CC(C)C)C(=O)N[C@@H](CC(C)C)C(=O)N[C@@H](CC(=O)O)C(=O)N[C@H](C(=O)O)[C@@H](C)CC)[C@@H](C)O (H-ITAFFLLDI-OH; N-terminus and C-terminus assumed) |  |
